# Columns and labels:
# SW-620 = assay: Cytotoxicity against human SW620 cells assessed as inhibition of cell proliferation after 48 hrs by XTT assay; type: functional, cell-based; settings: SW-620, 48 h
# ASPC1 = assay: Cytotoxicity against human AsPC1 cells assessed as inhibition of cell proliferation after 48 hrs by XTT assay; type: functional, cell-based; settings: ASPC1, 48 h
# MDA-MB-231 = assay: Cytotoxicity against human MDA-MB-231 cells assessed as inhibition of cell proliferation after 48 hrs by XTT assay; type: functional, cell-based; settings: MDA-MB-231, 48 h
# [1] = Kinetic solubility of the compound in water containing 5% DMSO at pH 6.8; type: physicochemical; settings: read-out: Kinetic_solubility
# NCI-H460 = assay: Cytotoxicity against human NCI-H460 cells assessed as inhibition of cell proliferation after 48 hrs by XTT assay; type: functional, cell-based; settings: NCI-H460, 48 h
# [2] = Cytotoxicity against mouse B16F10 cells assessed as inhibition of cell proliferation after 48 hrs by XTT assay; type: functional, cell-based; settings: B16-F10, 48 h
SMILES,IC50 (SW-620) [µM],IC50 (ASPC1; read-out: IC50) [µM],IC50 (MDA-MB-231) [µM],solubility kinetic [1] [µM],IC50 (NCI-H460) [µM],IC50 [2] [µM],IC50 (ASPC1) [µM]
CC(C)=CCc1c(O)cc2oc3cc(O)c(O)c(CC=C(C)C)c3c(=O)c2c1O,5.69,5.92,5.87,94,4.48,–,–
COc1c(OC(C)=O)cc2oc3cc(O)c(CC=C(C)C)c(O)c3c(=O)c2c1CC=C(C)C,10.9,13.9,12.9,148,12.6,13.1,–
COc1c(OCC(=O)O)cc2oc3cc(O)c(CC=C(C)C)c(O)c3c(=O)c2c1CC=C(C)C,46.6,52.8,> 100,–,54.6,28.6,–
COc1c(OCC(=O)O)cc2oc3cc(OCC(=O)O)c(CC=C(C)C)c(O)c3c(=O)c2c1CC=C(C)C,> 100,> 100,> 100,–,> 100,95.8,–
C=CCOc1cc2oc3cc(O)c(CC=C(C)C)c(O)c3c(=O)c2c(CC=C(C)C)c1OC,12.1,21.3,17.9,149,12.2,16.5,–
COc1c(OS(=O)(=O)C(F)(F)F)cc2oc3cc(OS(=O)(=O)C(F)(F)F)c(CC=C(C)C)c(O)c3c(=O)c2c1CC=C(C)C,9.01,13.8,16.9,–,22.4,15.3,–
C=CCOc1cc2oc3cc(OC)c(CC=C(C)C)c(O)c3c(=O)c2c(CC=C(C)C)c1OC,> 100,> 100,> 100,–,> 100,> 100,–
C=CCOc1cc2oc3cc(OCC=C)c(OC)c(CC=C(C)C)c3c(=O)c2c(OC)c1CC=C(C)C,44.6,25.8,28,–,14.6,41,–
COc1c(O)cc2oc3cc(O)c(CC=C(C)C)c(OC)c3c(=O)c2c1CC=C(C)C,18.2,13.9,20.8,104,10.8,16.6,–
COc1ccc2oc3cc(O)c(CCC(C)C)c(O)c3c(=O)c2c1CCC(C)C,> 100,> 100,> 100,–,> 100,> 100,–
COc1ccc2oc3ccc(CCC(C)C)c(O)c3c(=O)c2c1CCC(C)C,> 100,> 100,> 100,–,> 100,> 100,–
COc1c(N)cc2oc3ccc(CCC(C)C)c(O)c3c(=O)c2c1CCC(C)C,15.9,31.3,30.9,138,17.6,14.4,–
COc1c(O)cc2oc3cc(O)c(CCC(C)C)c(O)c3c(=O)c2c1CCC(C)C,6.42,4.64,4.91,78,4.17,6.54,–
COc1c(O)cc2oc3c([N+](=O)[O-])c(O)c(CCC(C)C)c(O)c3c(=O)c2c1CCC(C)C,22.6,31.8,29,339,16.8,–,–
COc1c(O)cc2oc3c(N)c(O)c(CCC(C)C)c(O)c3c(=O)c2c1CCC(C)C,6.24,13,17.6,–,15.1,12.3,–
COc1c(O)cc2oc3c(Cl)c(O)c(CCC(C)C)c(O)c3c(=O)c2c1CCC(C)C,9.59,19.3,10.1,381,9.96,12.4,–
C#CCOc1c(O)cc2oc3cc(O)c(CC=C(C)C)c(O)c3c(=O)c2c1CC=C(C)C,> 100,> 100,> 100,–,> 100,–,–
CC(C)=CCc1c(O)cc2oc3cc(O)c(OCc4cn(CC(=O)OC(C)(C)C)nn4)c(CC=C(C)C)c3c(=O)c2c1O,> 100,> 100,> 100,–,> 100,–,–
C=CCOc1cc2oc3cc(OCC=C)c(OC)c(CC=C(C)C)c3c(=O)c2c(O)c1CC=C(C)C,> 100,> 100,> 100,–,> 100,> 100,–
COc1c(O)cc2oc3cc4c(c(O)c3c(=O)c2c1CC=C(C)C)CCC(C)(C)O4,> 100,> 100,> 100,–,> 100,> 100,–
COc1c(OC(C)=O)cc2oc3cc(OC(C)=O)c(CC=C(C)C)c(O)c3c(=O)c2c1CC=C(C)C,22.7,14.2,17.4,122,12.5,15.1,–
COc1cccc2c1C(=O)c1c(O)c3c(c(O)c1C2=O)C[C@@](O)(C(=O)CO)C[C@@H]3O[C@H]1C[C@H](N)[C@H](O)[C@H](C)O1 [DOXORUBICIN],0.12,–,0.98,–,0.08,0.12,1.87
COc1c(O)cc2oc3cc4c(c(O)c3c(=O)c2c1CC=C(C)C)C=CC(C)(C)O4 [MANGOSTANIN],26.1,25.5,21.1,–,19.7,26.2,–
COc1c(O)cc2oc3cc(O)c(CC=C(C)C)c(O)c3c(=O)c2c1CC=C(C)C [MANGOSTIN],2.97,4.02,3.04,20,3.23,3.23,–

# — ChEMBL document CHEMBL3259560, “Synthesis of xanthone derivatives based on α-mangostin and their biological evaluation for anti-cancer agents” (Bioorg Med Chem Lett, 2014)
